Source: patent US10941157B2, “Pesticidal compositions and uses thereof” (Gilead Apollo, LLC, priority 2015, dated 2021)
In brackets after ≈: the same amount, converted by molar mass.

Legend:
Assay type in all cases: cell-based
[1] = system: Botrtyis cinerea (Bc); assay: In vitro pathogen growth inhibition assay, Bc; conditions: 48 h, ≥90% inhibition; 48 hours vs 2% DMSO control; read-out: Compound Concentration (ppm) sufficient for ≥90% inhibition of growth, Bc
Procedure: (§1) A growth inhibition assay was conducted to determine the ability of compounds to control the growth of fungal pathogens, such as Botrtyis cinerea (Bc), Collectotrichum graminicola (Cg), Diplodia maydis (Dm), Fusarium moniliforme (Fm), Fusarium virguliforme (Fv), Phytophthora capsici (Pc), Rhizoctonia solani (Rs), and Septoria tritici (St). The compounds listed in Table 1 were each dissolved in DMSO at 2.5 mg/ml to produce compound stock solutions (“stocks”). […] Negative controls on each plate included 2% DMSO, water, and a blank (media+2% DMSO). Fungal spores were isolated from previously sub-cultured plates of Botrtyis cinerea (Bc), Collectotrichum graminicola (Cg), Diplodia maydis (Dm), Fusarium moniliforme (Fm), Fusarium virguliforme (Fv), Phytophthora capsici (Pc), and Septoria tritici (St). The isolated spores were diluted to individual concentrations with a 17% V8 liquid media. For Rhizoctonia solani (Rs), 1.5 mm mycelial plugs were used in place of spores and ¼ Potato Dextrose Broth (PDB) was used for dilution. The spore concentrations and plug sizes were based on growth curves generated at 48 hours for each pathogen. In a second 96-well plate, the spores or mycelial plugs, media, diluted compound solutions, and controls were combined. Once the compound was added, a true final concentration of compound in each well was measured by an OD600 reading, which adjusted for any compound precipitation that might have occurred in the well. Plate readings were repeated at both 24 and 48 hours. The blank negative control was used as a background subtraction. Additional visual ratings were performed at both 24 and 48 hours for checking on precipitation and confirming efficacy. […] Both tables list the concentration of each compound that was sufficient to ≥90% inhibition of growth for each of the fungal pathogens listed above. In addition, some of compounds were tested in a yeast growth inhibition assay for Saccharomyces cerevisiae (Sc). Table 2 lists the concentration of the tested compound that was sufficient to ≥75% inhibition of Saccharomyces cerevisiae (Sc).

[2] = system: Collectotrichum graminicola (Cg); assay: In vitro pathogen growth inhibition assay, Cg; conditions: 48 h, ≥90% inhibition; 48 hours vs 2% DMSO control; read-out: Compound Concentration (ppm) sufficient for ≥90% inhibition of growth, Cg
Procedure: as §1

[3] = system: Diplodia maydis (Dm); assay: In vitro pathogen growth inhibition assay, Dm; conditions: Stenocarpella maydis, 48 h, ≥90% inhibition; 48 hours vs 2% DMSO control; read-out: Compound Concentration (ppm) sufficient for ≥90% inhibition of growth, Dm
Procedure: as §1

[4] = system: Fusarium moniliforme (Fm); assay: In vitro pathogen growth inhibition assay, Fm; conditions: Fusarium verticillioides; ≥90% inhibition; 48 hours vs 2% DMSO control; read-out: Compound Concentration (ppm) sufficient for ≥90% inhibition of growth, Fm
Procedure: as §1

[5] = system: Fusarium virguliforme (Fv); assay: In vitro pathogen growth inhibition assay, Fv; conditions: ≥90% inhibition, 48 hours vs 2% DMSO control, read-out: Compound Concentration (ppm) sufficient for ≥90% inhibition of growth, Fv
Procedure: as §1

[6] = system: Phytophthora capsici (Pc); assay: In vitro pathogen growth inhibition assay, Pc; conditions: 48 h, ≥90% inhibition, 48 hours vs 2% DMSO control, read-out: Compound Concentration (ppm) sufficient for ≥90% inhibition of growth, Pc
Procedure: as §1

[7] = system: Rhizoctonia solani (Rs); assay: In vitro pathogen growth inhibition assay, Rs (mycelial plugs); conditions: mycelial plugs; for IC90: Rhizoctonia solani, 48 h, ≥90% inhibition, 48 hours vs 2% DMSO control, read-out: Compound Concentration (ppm) sufficient for ≥90% inhibition of growth, Rs; for Compound Concentration (ppm) sufficient for ≥90% inhibition of Rs: ≥90% growth inhibition, 48 hours, vs 2% DMSO control
Procedure: as §1

[8] = system: Septoria tritici (St); assay: In vitro pathogen growth inhibition assay, St; conditions: for IC90: Zymoseptoria tritici, 48 h, ≥90% inhibition, 48 hours vs 2% DMSO control, read-out: Compound Concentration (ppm) sufficient for ≥90% inhibition of growth, St; for Compound Concentration (ppm) sufficient for ≥90% inhibition of St: ≥90% growth inhibition, 48 hours, vs 2% DMSO control
Procedure: as §1

Structure (SMILES)	IC90 [1] [µg/mL]	IC90 [2] [µg/mL]	IC90 [3] [µg/mL]	IC90 [4] [µg/mL]	IC90 [5] [µg/mL]	IC90 [6] [µg/mL]	IC90 [7] [µg/mL]	IC90 [8] [µg/mL]	Compound Concentration (ppm) sufficient for ≥90% inhibition of Rs [7] [ppm]	Compound Concentration (ppm) sufficient for ≥90% inhibition of St [8] [ppm]
COc1ccccc1[C@H](Cn1c(=O)n(C(C)(C)C(=O)NC(C)C)c(=O)c2c(C)c(-n3nccn3)sc21)OC1CCOCC1 [Compound I-029]	0.4 (≈ 0.655 µM)	≥ 2	≥ 2	0.08 (≈ 0.131 µM)	0.4 (≈ 0.655 µM)	50 (≈ 81.9 µM)	0.4 (≈ 0.655 µM)	> 10		
COc1ccccc1[C@H](Cn1c(=O)n(C(C)(C)C(N)=O)c(=O)c2c(C)c(-n3nccn3)sc21)OC1CCOCC1 [Compound I-031]	2 (≈ 3.52 µM)	10 (≈ 17.6 µM)	10 (≈ 17.6 µM)	0.08 (≈ 0.141 µM)	10 (≈ 17.6 µM)	> 50	10 (≈ 17.6 µM)	> 50		
CCNC(=O)C(C)(C)n1c(=O)c2c(C)c(-n3nccn3)sc2n(C[C@H](OC2CCOCC2)c2ccccc2OC)c1=O [Compound I-032]	0.4 (≈ 0.67 µM)	≥ 2	10 (≈ 16.8 µM)	0.08 (≈ 0.134 µM)	10 (≈ 16.8 µM)	> 50	10 (≈ 16.8 µM)	> 50		
COc1ccccc1[C@H](Cn1c(=O)n(C(C)(C)C(=O)N2CCCCC2)c(=O)c2c(C)c(-n3nccn3)sc21)OC1CCOCC1 [Compound I-033]	0.4 (≈ 0.628 µM)	≥ 0.4	≥ 0.4	0.08 (≈ 0.126 µM)	0.4 (≈ 0.628 µM)	> 50	0.08 (≈ 0.126 µM)	> 10		
COc1ccc(F)cc1[C@H](Cn1c(=O)n(C(C)(C)C(=O)N2CCCCC2)c(=O)c2c(C)c(-n3nccn3)sc21)OC1CCOCC1 [Compound I-036]	0.4 (≈ 0.611 µM)	0.08 (≈ 0.122 µM)	≥ 0.08	0.08 (≈ 0.122 µM)	0.4 (≈ 0.611 µM)	> 50	0.08 (≈ 0.122 µM)	≥ 2		
CCOC(=O)c1sc2c(c1C)c(=O)n(C(C)(C)C(=O)NC(C)C)c(=O)n2C[C@H](OCCC#N)c1cc(F)ccc1OC [Compound I-300]									0.08	>50
CCOC(=O)c1sc2c(c1C)c(=O)n([C@H](C)C(=O)NC(C)C)c(=O)n2C[C@H](OCCC#N)c1cc(F)ccc1OC [Compound I-330]									2	>50

Further lines, with some results ahead:

IC90 [1] [µg/mL]	IC90 [2] [µg/mL]	IC90 [3] [µg/mL]	IC90 [4] [µg/mL]	IC90 [5] [µg/mL]	IC90 [6] [µg/mL]	IC90 [7] [µg/mL]	IC90 [8] [µg/mL]	Structure (SMILES)	Compound Concentration (ppm) sufficient for ≥90% inhibition of Rs [7] [ppm]	Compound Concentration (ppm) sufficient for ≥90% inhibition of St [8] [ppm]
0.4 (≈ 0.682 µM)	0.4 (≈ 0.682 µM)	0.4 (≈ 0.682 µM)	0.08 (≈ 0.136 µM)	0.4 (≈ 0.682 µM)	> 50	0.4 (≈ 0.682 µM)	> 10	CCNC(=O)C(C)(C)n1c(=O)c2c(C)c(-n3nccn3)sc2n(C[C@H](OCC(C)C)c2cc(F)ccc2OC)c1=O [Compound I-025]		
0.4 (≈ 0.666 µM)	0.08 (≈ 0.133 µM)	0.08 (≈ 0.133 µM)	0.08 (≈ 0.133 µM)	0.4 (≈ 0.666 µM)	> 50	0.4 (≈ 0.666 µM)	≥ 2	COc1ccc(F)cc1[C@H](Cn1c(=O)n(C(C)(C)C(=O)NC(C)C)c(=O)c2c(C)c(-n3nccn3)sc21)OCC(C)C [Compound I-026]		
0.4 (≈ 0.638 µM)	0.4 (≈ 0.638 µM)	0.4 (≈ 0.638 µM)	0.08 (≈ 0.128 µM)	2 (≈ 3.19 µM)	> 50	0.4 (≈ 0.638 µM)	> 10	COc1ccc(F)cc1[C@H](Cn1c(=O)n(C(C)(C)C(=O)N2CCCCC2)c(=O)c2c(C)c(-n3nccn3)sc21)OCC(C)C [Compound I-027]		
0.4 (≈ 0.653 µM)	0.08 (≈ 0.131 µM)	≥ 0.08	0.08 (≈ 0.131 µM)	0.4 (≈ 0.653 µM)	> 50	0.08 (≈ 0.131 µM)	≥ 2	COc1ccc(F)cc1[C@H](Cn1c(=O)n(C(C)(C)C(=O)N2CCCC2)c(=O)c2c(C)c(-n3nccn3)sc21)OCC(C)C [Compound I-028]		
